Reference: US20020147136A1, “Compounds for targeting endothelial cells, compositions containing the same and methods for their use” (priority 2000, published 2002)
Residues, ends and D or L forms follow the SMILES beside them.

What was measured:
[1] = test system: Human aortic endothelial cells (HAEC); assay: Free TKPPR peptide inhibition of TKPPR-conjugated bead binding to HAEC; format: cell-based
Description: HAEC were seeded into each well of an 8-well chamber slide (Collagen I Cellware, Becton Dickinson) and allowed to achieve confluence at 37° C. Solutions containing both TKPPR-beads (final concentration 4.9×10^6/mL) and green control beads (final concentration 4.9×10^6/mL) were prepared in D-PBS containing protease inhibitor cocktail (final dilution 1:50) and 0, 10, 25, 50, 100, 200, or 500 μM free TKPPR peptide. 0.25 mL of each microsphere solution was added to a well in the drained chamber slide and incubated at RT for 15 min. Two wells received the bead solution (mixed unconjugated and TKPPR beads as indicated above) lacking free competing TKPPR peptide. The slide was then washed three times with 0.5 mL D-PBS containing 0.1% Tween 20, fixed with methanol for 1 min and mounted. The three images for each level of TKPPR competition and the six images of the control were averaged and the % inhibition of binding was calculated using the following equation:
% Inhibition=100×(Control Density−Competition Density)/Control Density
A total of eleven 8-well slides were evaluated for competitive TKPPR-bead binding to HAEC on 7 different days.

[2] = molecular target: NP-1/Fc; assay: Inhibition of 125I-VEGF165 binding to NP-1/Fc; details: 250 pM 125I-VEGF165, 4° C., 2 hours
Description: The ability of various compositions comprising TKPPR monomers or multimers to inhibit ^125I-VEGF binding to NP-1 was evaluated using NP-1/Fc. Competitive binding assays with microtiter plates coated with NP-1/Fc (R&D sytems) were performed using ^125I-VEGF165 as radioligand (Amersham Pharmacia Biotech Cat. No. IM274, Specific Activity: 1000-2500 Ci/mmol). […] Plates (Nunc MaxiSorp white opaque Microtiter plate [C-bottom, 437796]) were coated by incubating the wells with 75 µl of a solution containing 3 μlg/mL NP-1/Fc in D-PBS/0.1% NaAzide overnight at 4° C. after covering with sealing tape (Dynex, VWR Cat. No. 62402-931). […] All points were derived from triplicate wells, and for each set of replicates in NP-1/Fc-coated wells, a companion set in the absence of the receptor was included. For competitive binding, a series of unlabelled competitor concentrations were prepared in a 250 pM solution of ^1251-VEGF165 in assay buffer Solutions were added to 1.2 ml polypropylene tubes conforming to the microtiter format (Costar Cat. No. 29442-602), and transferred from these tubes to microtiter wells, without further dilution, using a multichannel pipettor. After addition of the appropriate solutions, microtiter plates were incubated at 4° C. for 2 hours. […] The plates were blotted dry and 25 μl deionized water and 100 μl scintillation fluid (Optiphase SuperMix, Wallac) were added to each well. Plates were agitated using a Plate Shaker (Hyperion, Cat. No. 4030-100F) for 3-5 minutes and were then counted using a Microplate Scintillation Counter (Wallac Microbeta Trilux) A set of serially diluted 125I-VEGF165 standard wells ranging from 200 to 0.04 pM were included with each experiment to aid in quantification of the amount of radiolabel bound.

[3] = test system: Human Umbilical Vein Endothelial Cells (HUVECS)
Description: The ability of compositions comprising a TKPPR monomer and a TKPPR multimer to inhibit ^125I-VEGF binding to endothelial cells was evaluated using HUVECs.

CC(O)C(N)C(=O)NC(CCCCN)C(=O)N1CCCC1C(=O)N1CCCC1C(=O)NC(CCCNC(=N)N)C(=O)O [TKPPR, L-Arginine, L-threonyl-L-lysyl-L-prolyl-L-prolyl] (H-TKPPR-OH; configuration not given here)
Average (n = 11) % Inhibition of TKPPR-bead binding ([1]; free TKPPR 10 μM): 30.8% | Average (n = 11) % Inhibition of TKPPR-bead binding ([1]; free TKPPR 25 μM): 50.7% | Average (n = 11) % Inhibition of TKPPR-bead binding ([1]; free TKPPR 50 μM): 50.5% | Average (n = 11) % Inhibition of TKPPR-bead binding ([1]; free TKPPR 100 μM): 62.0% | Average (n = 11) % Inhibition of TKPPR-bead binding ([1]; free TKPPR 200 μM): 72.2% | Average (n = 11) % Inhibition of TKPPR-bead binding ([1]; free TKPPR 500 μM): 70.6% | IC50 [2]: 43 µM | IC50 [3]: 250 µM
